Read-outs that look alike come from different tables or passages of the source. Square brackets hold non-standard residues; d marks the D form. Peptide text beside a SMILES is read from it. * marks the point of attachment. Adamantane1carbonyl = O=C(C12CC3CC(CC(C3)C1)C2)*; Benzoyl(4-CF3) = O=C(c1ccc(C(F)(F)F)cc1)*; NH((S)CH(Me)CH2NMe2) = C[C@@H](CN(C)C)N*; Benzoyl(4-OMe) = COc1ccc(C(=O)*)cc1; Gly(octyl) = CCCCCCCC[C@H](N)C(=O)O; Oxazole4CO(2-Me) = Cc1nc(C(=O)*)co1; Thiophene2carbonyl = O=C(c1cccs1)*; Benzoyl(4-F) = O=C(c1ccc(F)cc1)*; hCha = N[C@@H](CCC1CCCCC1)C(=O)O; X7 = O=C(c1ccc2[nH]ccc2c1)*; X3 = C[C@@H](CN1CCOCC1)N*; X5 = O=C(C1CCc2ccccc2C1)*; X9 = O=C(c1ccc2ocnc2c1)*; Aib = CC(C)(N)C(=O)O; βAla = NCCC(=O)O
What was measured:
[1] = system: axenic Leishmania donovani MHOM-ET-67/L82 amastigotes; assay: In vitro antiprotozoal assay, axenic amastigotes; type: cell-based; conditions: axenic amastigotes; read-out: L.don.ax. IC50
Method: (§1) The testing of the inventive compounds against Leishmania donovani (strain MHOM/ET/67/L82) was performed in 96 well plates at concentrations in serial dilutions. Tests were done in triplicate.

[2] = system: intracellular Leishmania donovani MHOM-ET-67/L82 amastigotes; assay: In vitro antiprotozoal assay, intracellular amastigotes; type: cell-based; conditions: intracellular amastigotes; read-out: L.don.InMac IC50
Method: as §1

[3] = Cytotoxicity assay (Alamar Blue) on L6-cells; type: cell-based, rat
Method: Tests were done in triplicate.
The plates were incubated for additional 2 h.

CCCCCCCC[C@H](NC(=O)[C@@H]1CCCN1C(=O)C12CC3CC(CC(C3)C1)C2)C(=O)N[C@@H](CC(C)C)C(=O)NC(C)(C)C(=O)N[C@@H](CC(C)C)C(=O)N[C@@H](CC(C)C)C(=O)NC(C)(C)C(=O)NC(C)(C)C(=O)NCCC(=O)N[C@@H](C)CN(C)C [Compound 5770, (2S)-2-{[(2S)-1-(adamantane-1-carbonyl)pyrrolidin-2-yl]formamido}-N-[(1S)-1-[(1-{[(1S)-1-{[(1S)-1-{[1-({1-[(2-{[(2S)-1-(dimethylamino)propan-2-yl]carbamoyl}ethyl)carbamoyl]-1-methylethyl}carbamoyl)-1-methylethyl]carbamoyl}-3-methylbutyl]carbamoyl}-3-methylbutyl]carbamoyl}-1-methylethyl)carbamoyl]-3-methylbutyl]decanamide] (Adamantane1carbonyl-P[Gly(octyl)]L[Aib]LL[Aib][Aib][βAla]-{NH((S)CH(Me)CH2NMe2)})
IC50 [1]: 0.001 µM | IC50 [2]: 0.338 µM | IC50 at 68 h ([3]; rat): 0.185 µM

CCCCCCCC[C@H](NC(=O)[C@@H]1CCCN1C(=O)c1cccs1)C(=O)N[C@@H](CC(C)C)C(=O)NC(C)(C)C(=O)N[C@@H](CC(C)C)C(=O)N[C@@H](CC(C)C)C(=O)NC(C)(C)C(=O)NC(C)(C)C(=O)NCCC(=O)N[C@@H](C)CN(C)C [Compound 5904, (2S)-N-[(1S)-1-[(1-{[(1S)-1-{[(1S)-1-{[1-({1-[(2-{[(2S)-1-(dimethylamino)propan-2-yl]carbamoyl}ethyl)carbamoyl]-1-methylethyl}carbamoyl)-1-methylethyl]carbamoyl}-3-methylbutyl]carbamoyl}-3-methylbutyl]carbamoyl}-1-methylethyl)carbamoyl]-3-methylbutyl]-2-{[(2S)-1-(thiophene-2-carbonyl)pyrrolidin-2-yl]formamido}decanamide] (Thiophene2carbonyl-P[Gly(octyl)]L[Aib]LL[Aib][Aib][βAla]-{NH((S)CH(Me)CH2NMe2)})
IC50 [1]: 0.0031 µM | IC50 [2]: 0.0114 µM | IC50 at 68 h ([3]; rat myoblast L6 cells, read-out: Cytotox L6 IC50): 0.216 µM

CCCCCCCC[C@H](NC(=O)[C@@H]1CCCN1C(=O)c1coc(C)n1)C(=O)N[C@@H](CC(C)C)C(=O)NC(C)(C)C(=O)N[C@@H](CC(C)C)C(=O)N[C@@H](CC(C)C)C(=O)NC(C)(C)C(=O)NC(C)(C)C(=O)NCCC(=O)N[C@@H](C)CN(C)C [Compound 5905, (2S)-N-[(1S)-1-[(1-{[(1S)-1-{[(1S)-1-{[1-({1-[(2-{[(2S)-1-(dimethylamino)propan-2-yl]carbamoyl}ethyl)carbamoyl]-1-methylethyl}carbamoyl)-1-methylethyl]carbamoyl}-3-methylbutyl]carbamoyl}-3-methylbutyl]carbamoyl}-1-methylethyl)carbamoyl]-3-methylbutyl]-2-{[(2S)-1-(2-methyl-1,3-oxazole-4-carbonyl)pyrrolidin-2-yl]formamido}decanamide] ({Oxazole4CO(2-Me)}-P[Gly(octyl)]L[Aib]LL[Aib][Aib][βAla]-{NH((S)CH(Me)CH2NMe2)})
IC50 [1]: 0.0079 µM | IC50 [2]: 0.0131 µM | IC50 at 68 h ([3]; rat): 0.852 µM

CCCCCCCC[C@H](NC(=O)[C@@H]1CCCN1C(=O)C1CCc2ccccc2C1)C(=O)N[C@@H](CC(C)C)C(=O)NC(C)(C)C(=O)N[C@@H](CC(C)C)C(=O)N[C@@H](CC(C)C)C(=O)NC(C)(C)C(=O)NC(C)(C)C(=O)NCCC(=O)N[C@@H](C)CN(C)C (stereo partly drawn) [Compound 5910, (2S)—N-[(1S)-1-[(1-{[(1S)-1-{[(1S)-1-{[1-({1-[(2-{[(2S)-1-(dimethylamino)propan-2-yl]carbamoyl}ethyl)carbamoyl]-1-methylethyl}carbamoyl)-1-methylethyl]carbamoyl}-3-methylbutyl]carbamoyl}-3-methylbutyl]carbamoyl}-1-methylethyl)carbamoyl]-3-methylbutyl]-2-{[(2S)-1-(1,2,3,4-tetrahydronaphthalene-2-carbonyl)pyrrolidin-2-yl]formamido}decanamide] (X5-P[Gly(octyl)]L[Aib]LL[Aib][Aib][βAla]-{NH((S)CH(Me)CH2NMe2)})
IC50 [1]: 0.0021 µM | IC50 [2]: 0.0067 µM | IC50 at 68 h ([3]; rat): 0.23 µM

CCCCCCCC[C@H](NC(=O)[C@@H]1CCCN1C(=O)c1ccc2[nH]ccc2c1)C(=O)N[C@@H](CC(C)C)C(=O)NC(C)(C)C(=O)N[C@@H](CC(C)C)C(=O)N[C@@H](CC(C)C)C(=O)NC(C)(C)C(=O)NC(C)(C)C(=O)NCCC(=O)N[C@@H](C)CN(C)C [Compound 5911, (2S)—N-[(1S)-1-[(1-{[(1S)-1-{[(1S)-1-{[1-({1-[(2-{[(2S)-1-(dimethylamino)propan-2-yl]carbamoyl}ethyl)carbamoyl]-1-methylethyl}carbamoyl)-1-methylethyl]carbamoyl}-3-methylbutyl]carbamoyl}-3-methylbutyl]carbamoyl}-1-methylethyl)carbamoyl]-3-methylbutyl]-2-{[(2S)-1-(1H-indole-5-carbonyl)pyrrolidin-2-yl]formamido}decanamide] (X7-P[Gly(octyl)]L[Aib]LL[Aib][Aib][βAla]-{NH((S)CH(Me)CH2NMe2)})
IC50 [1]: 0.0144 µM | IC50 [2]: 0.0348 µM | IC50 at 68 h ([3]; rat): 0.457 µM

CCCCCCCC[C@H](NC(=O)[C@@H]1CCCN1C(=O)c1ccc(OC)cc1)C(=O)N[C@@H](CC(C)C)C(=O)NC(C)(C)C(=O)N[C@@H](CC(C)C)C(=O)N[C@@H](CC(C)C)C(=O)NC(C)(C)C(=O)NC(C)(C)C(=O)NCCC(=O)N[C@@H](C)CN(C)C [Compound 5912, (2S)—N-[(1S)-1-[(1-{[(1S)-1-{[(1S)-1-{[1-({1-[(2-{[(2S)-1-(dimethylamino)propan-2-yl]carbamoyl}ethyl)carbamoyl]-1-methylethyl}carbamoyl)-1-methylethyl]carbamoyl}-3-methylbutyl]carbamoyl}-3-methylbutyl]carbamoyl}-1-methylethyl)carbamoyl]-3-methylbutyl]-2-{[(2S)-1-(4-methoxybenzoyl)pyrrolidin-2-yl]formamido}decanamide] ({Benzoyl(4-OMe)}-P[Gly(octyl)]L[Aib]LL[Aib][Aib][βAla]-{NH((S)CH(Me)CH2NMe2)})
IC50 [1]: 0.0051 µM | IC50 [2]: 0.0128 µM | IC50 at 68 h ([3]; rat): 0.254 µM

CCCCCCCC[C@H](NC(=O)[C@@H]1CCCN1C(=O)c1ccc(C(F)(F)F)cc1)C(=O)N[C@@H](CC(C)C)C(=O)NC(C)(C)C(=O)N[C@@H](CC(C)C)C(=O)N[C@@H](CC(C)C)C(=O)NC(C)(C)C(=O)NC(C)(C)C(=O)NCCC(=O)N[C@@H](C)CN(C)C [Compound 5936, (2S)-N-[(1S)-1-[(1-{[(1S)-1-{[(1S)-1-{[1-({1-[(2-{[(2S)-1-(dimethylamino)propan-2-yl]carbamoyl}ethyl)carbamoyl]-1-methylethyl}carbamoyl)-1-methylethyl]carbamoyl}-3-methylbutyl]carbamoyl}-3-methylbutyl]carbamoyl}-1-methylethyl)carbamoyl]-3-methylbutyl]-2-{[(2S)-1-[4-(trifluoromethyl)benzoyl]pyrrolidin-2-yl]formamido}decanamide] ({Benzoyl(4-CF3)}-P[Gly(octyl)]L[Aib]LL[Aib][Aib][βAla]-{NH((S)CH(Me)CH2NMe2)})
IC50 [1]: 0.0033 µM | IC50 [2]: < 0.0332 µM | IC50 at 68 h ([3]; rat): 0.411 µM

CCCCCCCC[C@H](NC(=O)[C@@H]1CCCN1C(=O)c1ccc2ocnc2c1)C(=O)N[C@@H](CC(C)C)C(=O)NC(C)(C)C(=O)N[C@@H](CC(C)C)C(=O)N[C@@H](CC(C)C)C(=O)NC(C)(C)C(=O)NC(C)(C)C(=O)NCCC(=O)N[C@@H](C)CN(C)C [Compound 5937, (2S)-2-{[(2S)-1-(1,3-benzoxazole-5-carbonyl)pyrrolidin-2-yl]formamido}-N-[(1S)-1-[(1-{[(1S)-1-{[(1S)-1-{[1-({1-[(2-{[(2S)-1-(dimethylamino)propan-2-yl]carbamoyl}ethyl)carbamoyl]-1-methylethyl}carbamoyl)-1-methylethyl]carbamoyl}-3-methylbutyl]carbamoyl}-3-methylbutyl]carbamoyl}-1-methylethyl)carbamoyl]-3-methylbutyl]decanamide] (X9-P[Gly(octyl)]L[Aib]LL[Aib][Aib][βAla]-{NH((S)CH(Me)CH2NMe2)})
IC50 [1]: 0.0212 µM | IC50 [2]: 0.0585 µM | IC50 at 68 h ([3]; rat): 1.16 µM

Cc1nc(C(=O)N2CCC[C@H]2C(=O)N[C@@H](CCC2CCCCC2)C(=O)N[C@@H](CC(C)C)C(=O)NC(C)(C)C(=O)N[C@@H](CC(C)C)C(=O)N[C@@H](CC(C)C)C(=O)NC(C)(C)C(=O)NC(C)(C)C(=O)NCCC(=O)N[C@@H](C)CN2CCOCC2)co1 [Compound 6026, (2S)-2-[(2S)-2-{2-[(2S)-2-[(2S)-4-cyclohexyl-2-{[(2S)-1-(2-methyl-1,3-oxazole-4-carbonyl)pyrrolidin-2-yl]formamido}butanamido]-4-methylpentanamido]-2-methylpropanamido}-4-methylpentanamido]-4-methyl-N-[1-methyl-1-({1-methyl-1-[(2-{[(2S)-1-(morpholin-4-yl)propan-2-yl]carbamoyl}ethyl)carbamoyl]ethyl}carbamoyl)ethyl]pentanamide] ({Oxazole4CO(2-Me)}-P[hCha]L[Aib]LL[Aib][Aib][βAla]-X3)
IC50 [1]: 0.0042 µM | IC50 [2]: 0.0507 µM | IC50 at 68 h ([3]; rat): 1.58 µM

CC(C)C[C@H](NC(=O)[C@H](CCC1CCCCC1)NC(=O)[C@@H]1CCCN1C(=O)c1ccc(F)cc1)C(=O)NC(C)(C)C(=O)N[C@@H](CC(C)C)C(=O)N[C@@H](CC(C)C)C(=O)NC(C)(C)C(=O)NC(C)(C)C(=O)NCCC(=O)N[C@@H](C)CN1CCOCC1 [Compound 6028, (2S)-2-[(2S)-2-{2-[(2S)-2-[(2S)-4-cyclohexyl-2-{[(2S)-1-(4-fluorobenzoyl)pyrrolidin-2-yl]formamido}butanamido]-4-methylpentanamido]-2-methylpropanamido}-4-methylpentanamido]-4-methyl-N-[1-methyl-1-({1-methyl-1-[(2-{[(2S)-1-(morpholin-4-yl)propan-2-yl]carbamoyl}ethyl)carbamoyl]ethyl}carbamoyl)ethyl]pentanamide] ({Benzoyl(4-F)}-P[hCha]L[Aib]LL[Aib][Aib][βAla]-X3)
IC50 [1]: 0.0033 µM | IC50 [2]: 0.418 µM | IC50 at 68 h ([3]; rat): 1.59 µM
